# “Also recorded” adds a separate entry of the source.
# Legend:
# terminal cancer patients [1] = assay: Lymphocyte and neutrophil counts and neutrophil-to-lymphocyte ratio in cancer patients on continuous IVC (updated analysis of Riordan trial); type: in vivo, human
# Protocol: (§1) The second trial of the treatment of cancer patients by continuous infusions was conducted by Dr. Riordan. In this Phase I clinical trial (hereafter referred to as the Riordan trial), patients were administered continuous infusions using an infusion pump [See for example Ref 1]. In the Riordan Clinic trial, patients were treated by continuous infusion, which was administered over much longer periods of time than bolus intermittent treatments. For most patients, the duration of the continuous infusion was at least 20 hours, as the duration of bolus infusion is from one hour to three hours, depending on the dosage.
# (§2) The trial lasted eight weeks and involved terminal patients with poor prognosis. Twenty-four (24) subjects were given continuous IVC at doses between 150 and 710 mg/kg/day (10-50 grams per day). Most of the patients had colon cancer with liver and lung metastasis and three patients had pancreatic or liver cancer. All patients had several chemotherapy/radiation treatments before entering the study.
# (§3) Recently, previously unpublished parameters from the clinical study were analyzed, including blood chemistry and blood count parameters that are reportedly related to patient prognosis and degree of inflammation [See for example Ref 2]. This included: absolute neutrophil and lymphocyte counts and the neutrophil-to-lymphocyte ratio; lactate dehydrogenase, an enzyme involved in tumor initiation, metastasis, and recurrence; creatinine, the depletion of which is associated with cachexia; and glucose, as hyperglycemia is common in cancer patients.
# [2] = test system: patients suffering from cancer; assay: Pulse-press intravenous vitamin C protocol in cancer patients (Example 3); type: in vivo, human
# Protocol: Intravenous vitamin C therapy is given by intermittent, high dose infusion that involves administering high-dose vitamin C (15-100 grams) over a 1-2 hour window and repeated twice weekly (every 2-4 days). The intermittent frequency of high-dose administration is referred to as a PULSED approach or as a PULSE dose.
# As an adjunct to high-dose intermittent vitamin C infusions, experiments described herein have led to the developments of a method for administering continuous low to mid doses of vitamin C infusion using an elastomeric pump (non-electric) infusion pump over an 8 to 48 hour window. This method of continuous infusion targets a therapeutic dose anywhere between 4 to 50 grams of vitamin C per infusion window and is referred to as a PRESS approach or a PRESS dose.
# The intravenous vitamin C+(IVC+) protocol for the treatment of cancer, and other chronic conditions, described herein combines the pulse approach with a press protocol into a PULSE-PRESS approach whereby vitamin C infusions alternate between a high-dose rapid infusion with a low to mid dose continuous infusion.
# This clinical application of the IVC+ Protocol is centered on a 2-day cycle of a rapid PULSE infusion immediately followed by a PRESS continuous infusion at a rate of […] of Vitamin C per hour. Over the two week period, each pulse dose of vitamin C is increased to a therapeutic dose as outlined in the original Riordan IVC Protocol [See for example. Ref 1]. Each week back to back pulse-press doses are given followed by a final pulse dose leading into a rest period. These cyclic rest periods are important wherein they provide recovery time necessary for the patient to assimilate the oxidative stress generated within the body.
# The protocol has been used on about six subjects to ascertain safety, feasibility and usability of the pump and in coordinating the process with existing therapies. The types of cancer for these patients varied.
# terminal cancer patients [3] = assay: Blood chemistry (lactate dehydrogenase, glucose) and survival in cancer patients on continuous IVC (updated analysis of Riordan trial); type: in vivo, human
# Protocol: as §1, §2, §3
# [4] = Plasma ascorbate during continuous IVC infusion (Riordan Phase I trial); type: in vivo, human; details: continuous infusion 150-710 mg/kg/day, cancer patients
# Protocol: as §1, §2
# The most obvious effect of IVC therapy was to increase patient vitamin C levels. […] In fact, ten out of twenty-four subjects entered the trial with plasma ascorbate concentrations undetectable by the colorimetric ascorbate assay used at that time, with another four having ascorbate concentrations below the normal range (FIG. 1). IVC infusion increased plasma levels to 1 mM. […]
# terminal cancer patients [5] = details: 10 g/day continuous IV infusion for 10 days, then oral 10-30 g/day; 100 terminal cancer patients; cited from earlier work
# terminal cancer patients [6] = assay: Safety and adverse events of continuous IVC infusion (Riordan trial); type: in vivo, human
# Protocol: as §1
# The trial lasted eight weeks and involved terminal patients with poor prognosis. Twenty-four (24) subjects were given continuous IVC at doses between 150 and 710 mg/kg/day (10-50 grams per day). Most of the patients had colon cancer with liver and lung metastasis and three patients had pancreatic or liver cancer.
# [7] = a patient suffering from cancer
# [8] = rate of increase of LDH before vs after treatment
compound,measurement,setting,value
"O=C1O[C@H]([C@@H](O)CO)C(O)=C1O [IVC, L-ascorbic acid]",median improvement in the lymphocyte count,"terminal cancer patients [1]; all patients with lymphocyte levels lower than normal range, continuous IVC",22%
same,"neutrophil counts, tendency during treatment",terminal cancer patients [1]; most of the patients,normalization of the neutrophil counts
same,rate of growth (change) of neutrophil-to-lymphocyte ratio (NLR),"terminal cancer patients [1]; one week before treatment vs during treatment, continuous IVC",tended to decrease the rate of growth of NLR; also recorded: rate of change was decreased
same,neutrophil counts,terminal cancer patients [1]; patients for whom neutrophil counts are elevated,reducing neutrophil counts
same,lymphocyte and neutrophil counts,terminal cancer patients [1]; patients in whom these numbers are below normal,increase lymphocyte and neutrophil counts
same,median improvement in the lymphocyte count,"terminal cancer patients [1]; patients with severe lymphopenia who completed treatment, continuous IVC",69%
same,development of chemo resistance,[2]; [7],no signs of the development of chemo resistance
same,efficacy of treatment,[2]; [7],appeared efficacious
same,tolerability,[2]; [7],well-tolerated
same,tolerability,"[2]; pulse press protocol, about six subjects, various cancers",well tolerated
same,median survival time,terminal cancer patients [3]; participants with initial LDH higher than normal range (LDH>245 U/L),95 days
same,blood glucose levels during IVC therapy,terminal cancer patients [3]; patients with concentrations higher than normal range,decreased
same,patients with LDH rate of growth decreased,terminal cancer patients [3]; [8],38 % of patients
same,patients with LDH rate of growth increased,terminal cancer patients [3]; [8],28.6 % of patients
same,patients with LDH rate of growth not changed,terminal cancer patients [3]; [8],33.4 % of patients
same,median survival time,terminal cancer patients [3]; subjects with normal initial LDH values,173 days
same,plasma ascorbate level reached during IVC infusion,[4],1 mM
same,survival time and quality of life versus patients who had not received IVC,terminal cancer patients [5],increased survival time and improved quality of life
same,Grade 3 adverse events,terminal cancer patients [6]; considered possibly related to the ascorbate therapy,Most of the Grade 3 events involved hypokalemia
same,"side effects, overall severity",terminal cancer patients [6]; continuous IVC infusion trial,mostly minor
same,renal function indicators BUN and creatinine,terminal cancer patients [6]; during therapy,remained relatively stable
same,uric acid,terminal cancer patients [6]; during therapy,decreased during therapy
same,grade of the most common side effects,terminal cancer patients [6]; in vivo,generally minor (Grade 1)
same,dry skin or mouth,terminal cancer patients [6]; of 24 subjects,7 subjects
same,edema,terminal cancer patients [6]; of 24 subjects,7 subjects
same,fatigue,terminal cancer patients [6]; of 24 subjects,6 subjects
same,injector port occlusion,terminal cancer patients [6]; of 24 subjects,10 subjects
same,nausea,terminal cancer patients [6]; of 24 subjects,11 subjects
same,subjects with BUN increases during therapy,terminal cancer patients [6]; of 24 subjects,four
